Results published in patent publication US20220087996A1, “Histone acetylase p300 inhibitor and use thereof” (HINOVA PHARMACEUTICALS INC., priority 2018, published 2022).

The compounds below were run on CWR22RV1 cells (assay: Inhibition of proliferation of CWR22RV1 cells (CCK-8)). Conditions: 6 days culture, read-out: IC50 against CWR22RV1 cells.
Type: cell-based, human
In short: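 Proliferation read-out was CCK-8 absorbance at 450 nm after 2.5 h, following 6-day culture with compound. Each well held 1500 CWR22RV1 cells; the 3-fold, 9-point series started at a final 10 μM in 0.1% DMSO. Dose-response-inhibition fit gave the IC50.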
Compound `CNC(=O)Nc1ccc2c(c1)C1(CC1)CC21OC(=O)N(CC(=O)N2[C@@H](C)CC[C@H]2c2ccc(F)cc2)C1=O` (stereo partly drawn) [Example 373, 1-(3′-(2-((2S,5S)-2-(4-fluorophenyl)-5-methylpyrrolidin-1-yl)-2-oxoethyl)-2′,4′-dioxo-dihydrospiro[cyclopropane-1,1′-indene-3′,5′-oxazolidin]-6′-yl)-3-methylurea] has an IC50 of over 2000 nM.

Same assay, conditions: Homo sapiens, CWR22Rv1, 144 h, 6 days culture, read-out: IC50 against CWR22RV1 cells
`CNC(=O)Nc1ccc2c(c1)CC[C@@]21OC(=O)N(CC(=O)N2[C@@H](C)CC[C@H]2C2CCCCC2)C1=O` [Example 357, 1-((R)-3′-(2-((2S,5S)-2-cyclohexyl-5-methylpyrrolidin-1-yl)-2-oxoethyl)-2′,4′-dioxo-2,3-dihydrospiro[indene-1,5′-oxazolidine]-5-yl)-3-methylurea] was tested, and the IC50 was at most 500 nM. Work on `CNC(=O)Nc1ccc2c(c1)CC[C@@]21OC(=O)N(CC(=O)N2C(C)CCC2c2ccc(F)c(Cl)c2)C1=O` (stereo partly drawn) [Example 359, 1-((1R)-3′-(2-(2-(3-chloro-4-fluorophenyl)-5-methylpyrrolidin-1-yl)-2-oxoethyl)-2′,4′-dioxo-2,3-dihydrospiro[indene-1,5′-oxazolidine]-5-yl)-3-methylurea] yielded an IC50 of at most 500 nM. For `CNC(=O)Nc1ccc2c(c1)CCC21OC(=O)N(CC(=O)N2[C@@H](CO)CC[C@H]2c2ccc(F)cc2)C1=O` (stereo partly drawn) [Example 361, 1-(3′-(2-((2S,5R)-2-(4-fluorophenyl)-5-(hydroxymethyl)pyrrolidin-1-yl)-2-oxoethyl)-2′,4′-dioxo-2,3-dihydrospiro[indene-1,5′-oxazolidine]-5-yl)-3-methylurea], the IC50 was 500 to 2000 nM. `CNC(=O)Nc1ccc2c(c1)CC[C@@]21OC(=O)N(CC(=O)N2C(c3ccc(F)cc3)CC[C@H]2CO)C1=O` (stereo partly drawn) [Example 363, 1-((1R)-3′-(2-((5S)-2-(4-fluorophenyl)-5-(hydroxymethyl)pyrrolidin-1-yl)-2-oxoethyl)-2′,4′-dioxo-2,3-dihydrospiro[indene-1,5′-oxazolidine]-5-yl)-3-methylurea] showed an IC50 of over 2000 nM. With `CNC(=O)Nc1ccc2c(c1)CC[C@@]21OC(=O)N(CC(=O)N2C(c3ccc(F)cc3)CCC2(C)C)C1=O` (stereo partly drawn) [Example 365, 1-((1R)-3′-(2-(5-(4-fluorophenyl)-2,2-dimethylpyrrolidin-1-yl)-2-oxoethyl)-2′,4′-dioxo-2,3-dihydrospiro[indene-1,5′-oxazolidine]-5-yl)-3-methylurea] the IC50 was 500 to 2000 nM. For `CNC(=O)Nc1ccc2c(c1)CC[C@@]21OC(=O)N(CC(=O)N2C(c3ccc(F)c(F)c3)CCC2(C)C)C1=O` (stereo partly drawn) [Example 366, 1-((1R)-3′-(2-(5-(3,4-difluorophenyl)-2,2-dimethylpyrrolidin-1-yl)-2-oxoethyl)-2′,4′-dioxo-2,3-dihydrospiro[indene-1,5′-oxazolidine]-5-yl)-3-methylurea], the IC50 was 500 to 2000 nM. With `C=C[C@H]1CC[C@@H](c2ccc(F)cc2)N1C(=O)CN1C(=O)O[C@@]2(CCc3cc(NC(=O)NC)ccc32)C1=O` [Example 367, 1-((R)-3′-(2-((2S,5R)-2-(4-fluorophenyl)-5-vinylpyrrolidin-1-yl)-2-oxoethyl)-2′,4′-dioxo-2,3-dihydrospiro[indene-1,5′-oxazolidine]-5-yl)-3-methylurea] the IC50 was 500 to 2000 nM. For `CNC(=O)Nc1ccc2c(c1)CC[C@@]21OC(=O)N(CC(=O)N2C(C)(C)CCCC2(C)C)C1=O` [Example 368], the IC50 was over 2000 nM. In the case of `CNC(=O)Nc1ccc2c(c1)CC[C@@]21OC(=O)N(CC(=O)N2C(c3ccc(F)c(F)c3)CC[C@@H]2C)C1=O` (stereo partly drawn) [Example 374, 1-((R)-3′-(2-((5S)-2-(3,4-difluorophenyl)-5-methylpyrrolidin-1-yl)-2-oxoethyl)-2′,4′-dioxo-2,3-dihydrospiro[indene-1,5′-oxazolidine]-5-yl)-3-methylurea], the IC50 is reported as over 2000 nM. `CNC(=O)Nc1ccc2c(c1)CC[C@@]21OC(=O)N(CC(=O)N2C(c3ccncc3)CC[C@@H]2C)C1=O` (stereo partly drawn) [Example 375, 1-methyl-3-(3′-(2-((2S)-2-methyl-5-(pyridin-4-yl)pyrrolidin-1-yl)-2-oxoethyl)-2′,4′-dioxo-2,3-dihydrospiro[indene-1,5′-oxazolidine]-5-yl)urea] gave an IC50 of over 2000 nM. `C[C@H]1CC[C@@H](c2ccc(F)cc2)N1C(=O)CN1C(=O)O[C@@]2(CCc3cc(NC(=O)C(F)F)ccc32)C1=O` [Example 376, 2,2-difluoro-N—((R)-3′-(2-((2S,5S)-2-(4-fluorophenyl)-5-methylpyrrolidin-1-yl)-2-oxoethyl)-2′,4′-dioxo-2,3-dihydrospiro[indene-1,5′-oxazolidine]-5-yl)acetamide] gave an IC50 of 500 to 2000 nM. `CO[C@@H](C)C(=O)Nc1ccc2c(c1)CC[C@@]21OC(=O)N(CC(=O)N2[C@@H](C)CC[C@H]2c2ccc(F)cc2)C1=O` [Example 377, (S)—N—((R)-3′-(2-((2S,5S)-2-(4-fluorophenyl)-5-methylpyrrolidin-1-yl)-2-oxoethyl)-2′,4′-dioxo-2,3-dihydrospiro[indene-1,5′-oxazolidine]-5-yl)-2-methoxypropionamide] was tested, and the IC50 was 500 to 2000 nM. For `CNC(=O)Nc1ccc2c(c1)CC[C@@]21OC(=O)N(CC(=O)N2C(C)CC[C@H]2CN2CCC3(CC2)CC3(F)F)C1=O` (stereo partly drawn) [Example 378, 1-((1R)-3′-(2-((2S)-2-((1,1-difluoro-6-aza-spiro[2.5]octan-6-yl)methyl)-5-methylpyrrolidin-1-yl)-2-oxoethyl)-2′,4′-dioxo-2,3-dihydrospiro[indene-1,5′-oxazolidine]-5-yl)-3-methylurea], the IC50 was over 2000 nM. For `CNC(=O)Nc1ccc2c(c1)CC[C@@]21OC(=O)N(CC(=O)N2[C@H](CN3CCC4(CC3)CC4(F)F)CC[C@@H]2C)C1=O` [Example 379, 1-((R)-3′-(2-((2S,5S)-2-((1,1-difluoro-6-aza-spiro[2.5]octan-6-yl)methyl)-5-methylpyrrolidin-1-yl)-2-oxoethyl)-2′,4′-dioxo-2,3-dihydrospiro[indene-1,5′-oxazolidine]-5-yl)-3-methylurea], the IC50 was over 2000 nM. Work on `CNC(=O)Nc1ccc2c(c1F)CC[C@]21OC(=O)N(CC(=O)N2[C@@H](C)CC[C@H]2c2ccc(F)c(F)c2)C1=O` [Example 381, 1-((S)-3′-(2-((2S,5S)-2-(3,4-difluorophenyl)-5-methylpyrrolidin-1-yl)-2-oxoethyl)-4-fluoro-2′,4′-dioxo-2,3-dihydrospiro[indene-1,5′-oxazolidine]-5-yl)-3-methylurea] yielded an IC50 of over 2000 nM. `CNC(=O)Nc1ccc2c(c1F)CC[C@]21OC(=O)N(CC(=O)N2[C@@H](C)CC[C@H]2c2cc(F)c(F)c(F)c2)C1=O` [Example 382, 1-((S)-4-fluoro-3′-(2-((2S,5S)-2-methyl-5-(3,4,5-trifluorophenyl)pyrrolidin-1-yl)-2-oxoethyl)-2′,4′-dioxo-2,3-dihydrospiro[indene-1,5′-oxazolidine]-5-yl)-3-methylurea] gave an IC50 of over 2000 nM. Compound `CNC(=O)Nc1ccc2c(c1F)CC[C@@]21OC(=O)N(CC(=O)N2[C@@H](C)CC[C@H]2c2ccc(F)c(F)c2)C1=O` [Example 383, 1-((R)-3′-(2-((2S,5S)-2-(3,4-difluorophenyl)-5-methylpyrrolidin-1-yl)-2-oxoethyl)-4-fluoro-2′,4′-dioxo-2,3-dihydrospiro[indene-1,5′-oxazolidine]-5-yl)-3-methylurea] has an IC50 of over 2000 nM. With `CNC(=O)Nc1ccc2c(c1F)CC[C@@]21OC(=O)N(CC(=O)N2[C@@H](C)CC[C@H]2c2cc(F)c(F)c(F)c2)C1=O` [Example 384, 1-((R)-4-fluoro-3′-(2-((2S,5S)-2-methyl-5-(3,4,5-trifluorophenyl)pyrrolidin-1-yl)-2-oxoethyl)-2′,4′-dioxo-2,3-dihydrospiro[indene-1,5′-oxazolidine]-5-yl)-3-methylurea] the IC50 was over 2000 nM. Compound `CNC(=O)Nc1cc(F)c2c(c1)CC[C@]21OC(=O)N(CC(=O)N2[C@@H](C)CC[C@H]2c2ccc(F)c(F)c2)C1=O` [Example 385, 1-((S)-3′-(2-((2S,5S)-2-(3,4-difluorophenyl)-5-methylpyrrolidin-1-yl)-2-oxoethyl)-7-fluoro-2′,4′-dioxo-2,3-dihydrospiro[indene-1,5′-oxazolidine]-5-yl)-3-methylurea] has an IC50 of over 2000 nM. `CNC(=O)Nc1cc(F)c2c(c1)CC[C@]21OC(=O)N(CC(=O)N2[C@@H](C)CC[C@H]2c2cc(F)c(F)c(F)c2)C1=O` [Example 386, 1-((S)-7-fluoro-3′-(2-((2S,5S)-2-methyl-5-(3,4,5-trifluorophenyl)pyrrolidin-1-yl)-2-oxoethyl)-2′,4′-dioxo-2,3-dihydrospiro[indene-1,5′-oxazolidine]-5-yl)-3-methylurea] showed an IC50 of over 2000 nM. `CNC(=O)Nc1cc(F)c2c(c1)CC[C@@]21OC(=O)N(CC(=O)N2[C@@H](C)CC[C@H]2c2ccc(F)c(F)c2)C1=O` [Example 387, 1-((R)-3′-(2-((2S,5S)-2-(3,4-difluorophenyl)-5-methylpyrrolidin-1-yl)-2-oxoethyl)-7-fluoro-2′,4′-dioxo-2,3-dihydrospiro[indene-1,5′-oxazolidine]-5-yl)-3-methylurea] was tested, and the IC50 was 500 to 2000 nM. Work on `CNC(=O)Nc1cc(F)c2c(c1)CC[C@@]21OC(=O)N(CC(=O)N2[C@@H](C)CC[C@H]2c2cc(F)c(F)c(F)c2)C1=O` [Example 388] yielded an IC50 of over 2000 nM. For `CNC(=O)Nc1cc2c(cc1F)[C@]1(CC2)OC(=O)N(CC(=O)N2[C@@H](C)CC[C@H]2c2ccc(F)c(F)c2)C1=O` [Example 391, 1-((S)-3′-(2-((2S,5S)-2-(3,4-difluorophenyl)-5-methylpyrrolidin-1-yl)-2-oxoethyl)-6-fluoro-2′,4′-dioxo-2,3-dihydrospiro[indene-1,5′-oxazolidine]-5-yl)-3-methylurea], the IC50 was over 2000 nM. In the case of `CNC(=O)Nc1cc2c(cc1F)[C@]1(CC2)OC(=O)N(CC(=O)N2[C@@H](C)CC[C@H]2c2cc(F)c(F)c(F)c2)C1=O` [Example 392], the IC50 is reported as 500 to 2000 nM. In the case of `CNC(=O)Nc1ccc2c(c1)CC[C@@]21OC(=O)N(CC(=O)N2CCC[C@H]2c2ccccc2OC)C1=O` [compound 339], the IC50 is reported as over 2000 nM. With `CCc1cc(F)ccc1C1CCC(C)N1C(=O)CN1C(=O)O[C@@]2(CCc3cc(NC(=O)NC)ccc32)C1=O` (stereo partly drawn) [compound 358] the IC50 was 500 to 2000 nM. `C[C@H]1CC[C@@H](c2ccc(F)cc2)N1C(=O)CN1C(=O)O[C@@]2(CCc3cc(N)ccc32)C1=O` [compound 372] was tested, and the IC50 was over 2000 nM.

Same assay, conditions: Homo sapiens, CWR22Rv1, 144 h, 6 days culture, read-out: IC50 against CWR22RV1 cells (text)
Compound `CNC(=O)Nc1ccc2c(c1)CC[C@@]21OC(=O)N(CC(=O)N2[C@@H](C)CC[C@H]2C2CCCCC2)C1=O` [Example 357, 1-((R)-3′-(2-((2S,5S)-2-cyclohexyl-5-methylpyrrolidin-1-yl)-2-oxoethyl)-2′,4′-dioxo-2,3-dihydrospiro[indene-1,5′-oxazolidine]-5-yl)-3-methylurea] has an IC50 of at most 500 nM. With `CNC(=O)Nc1ccc2c(c1)CC[C@@]21OC(=O)N(CC(=O)N2C(C)CCC2c2ccc(F)c(Cl)c2)C1=O` (stereo partly drawn) [Example 359, 1-((1R)-3′-(2-(2-(3-chloro-4-fluorophenyl)-5-methylpyrrolidin-1-yl)-2-oxoethyl)-2′,4′-dioxo-2,3-dihydrospiro[indene-1,5′-oxazolidine]-5-yl)-3-methylurea] the IC50 was at most 500 nM.
